Assay results taken from patent publication EP4772500A1, “NOVEL ISOXAZOLE COMPOUND AS TM4SF5-SPECIFIC INHIBITOR AND USE THEREOF” (Seoul National University R&DB Foundation, priority 2023, dated 2025).

Columns and labels:
Type in all cases: cell-based, human
SNU449-TM4SF5 cells = test: Western blotting of NK cell stimulatory ligands; conditions: SNU449-TM4SF5, given concentration, 24 hours (FIG. 13c)
Protocol: (§1) Cell extracts were obtained from cells grown to a density of 70-80% without any treatment, or from cells treated with vehicle DMSO or drugs at the given concentrations for 24 hours. For the extract of hepatocytes or liver cancer cells, a lysis buffer (150 mM NaCl, 1% NP-40, 50 mM Tris-HCl, 0.25% sodium deoxycholate, pH 7.4) including a protease inhibitor cocktail (GenDEPOT) was used. In addition, after washing animal liver tissue twice with PBS, SDS, Na3VO4, and protease inhibitor cocktails (GenDEPOT) were added to a lysis buffer [50 mM Tris-HCl, pH 7.4, 1% NP40, 0.25% sodium deoxycholate, 150 mM NaCl, 1 mM EDTA (based on 500 ml)], followed by treatment at 4°C for 15 minutes. […] After quantification using BCA reagent (Thermo Scientific), a 4 × sample buffer [100% glycerol 4 ml, Tris-HCl, pH 6.8, 2.4 ml, SDS 0.8 g, Bromophenol blue 4 mg, betamercaptoethanol 0.4 ml, H2O 3.1 ml (based on 10 ml)] was added, followed by boiling at 100°C for 5 minutes. […]
(§2) After 24 hours, vehicle DMSO, drug ST-1-025, or ST-5-002 was treated at the given concentrations. […] (f) After treating NK92-EV or NK92-TM4SF5 cells with DMSO or drugs ST-2-001 (1 nM), ST-3-005 (10 nM or 1 µM), ST-5-001, or ST-5-002 (100 nM or 1 µM) for 24 hours, the expression of SLAMF7 expressed on the cell surface was analyzed through immunostaining using flow cytometry. […]

[1] = test system: SNU449-TM4SF5 and Huh7-Con; test: qRT-PCR/Western blotting of laminin γ2, AFP and liver cancer markers in TM4SF5-expressing hepatocytes; conditions: 2.5 µM, 24 hours (FIG. 8h-i)
SNU761-EV cells = test: Western blotting of SLAMF7 expression, control SNU761 cells; conditions: SNU761-EV (FIG. 13d)
Protocol: as §1, §2

Compound	expression of the stimulatory ligands (MICA/B, SLAMF6, and SLAMF7) (SNU449-TM4SF5 cells)	elevated expressions of laminin γ2, AFP, phosphorylation of STAT3, FUCA and CD34 [1]	expression of SLAMF7 (SNU761-EV cells)
COc1ccc(-c2cc(-c3ccc(N)cc3)no2)cc1 [ST-1-025, 4-(5-(4-methoxyphenyl)isoxazole-3-yl)aniline]	increased again	–	–
Cc1ccc(C(=O)Nc2ccc(-c3cc(-c4ccc(O)cc4)no3)cc2)cc1 [ST-5-002, N-(4-(3-(4-hydroxyphenyl)isoxazole-5-yl)phenyl)-4-methylbenzamide]	–	inhibited	lowered
